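Compound exposure: 48 hours, 5 concentrations, 96-well plates. GI50 is the concentration that inhibits growth by half. TGI: total growth inhibition.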
Experiments:
Test in all cases: growth of human tumour cells (NCI), 48 h
SW-620 colon = system: SW-620 colon
RPMI-8226 leukemia = system: RPMI-8226 leukemia
CCRF-CEM leukemia = system: CCRF-CEM leukemia
OVCAR-3 ovarian = system: OVCAR-3 ovarian
COLO 205 colon = system: COLO 205 colon
K-562 leukemia = system: K-562 leukemia
SR leukemia = system: SR leukemia
NCI-H522 lung = system: NCI-H522 lung
A498 renal = system: A498 renal
HL-60(TB) leukemia = system: HL-60(TB) leukemia
MDA-MB-231 breast = system: MDA-MB-231 breast
SNB-19 CNS = system: SNB-19 CNS
SK-MEL-28 melanoma = system: SK-MEL-28 melanoma
KM12 colon = system: KM12 colon
HS 578T breast = system: HS 578T breast
SK-OV-3 ovarian = system: SK-OV-3 ovarian
M14 melanoma = system: M14 melanoma
HCC-2998 colon = system: HCC-2998 colon
T-47D breast = system: T-47D breast
LOX IMVI melanoma = system: LOX IMVI melanoma
MCF7 breast = system: MCF7 breast
OVCAR-8 ovarian = system: OVCAR-8 ovarian
HCT-116 colon = system: HCT-116 colon
NCI-H23 lung = system: NCI-H23 lung
SF-268 CNS = system: SF-268 CNS
CAKI-1 renal = system: CAKI-1 renal
DU-145 prostate = system: DU-145 prostate
UACC-257 melanoma = system: UACC-257 melanoma
SK-MEL-5 melanoma = system: SK-MEL-5 melanoma
NCI-H460 lung = system: NCI-H460 lung
HOP-92 NSCLC = system: HOP-92 NSCLC
MOLT-4 leukemia = system: MOLT-4 leukemia
UO-31 renal = system: UO-31 renal
OVCAR-4 ovarian = system: OVCAR-4 ovarian
HCT-15 colon = system: HCT-15 colon
SK-MEL-2 melanoma = system: SK-MEL-2 melanoma
SN12C renal = system: SN12C renal
TK-10 renal = system: TK-10 renal
EKVX NSCLC = system: EKVX NSCLC
IGROV1 ovarian = system: IGROV1 ovarian
RXF 393 renal = system: RXF 393 renal
U251 CNS = system: U251 CNS
MDA-MB-435 = system: MDA-MB-435
OVCAR-5 ovarian = system: OVCAR-5 ovarian
HT29 colon = system: HT29 colon
HOP-62 NSCLC = system: HOP-62 NSCLC
A549 NSCLC = system: A549 NSCLC
PC-3 prostate = system: PC-3 prostate
NCI-H226 lung = system: NCI-H226 lung
SF-539 CNS = system: SF-539 CNS
ACHN renal = system: ACHN renal
UACC-62 melanoma = system: UACC-62 melanoma
786-0 renal = system: 786-0 renal
NCI/ADR-RES ovarian = system: NCI/ADR-RES ovarian
MALME-3M melanoma = system: MALME-3M melanoma
SF-295 CNS = system: SF-295 CNS
BT-549 breast = system: BT-549 breast

C=C1C(=O)O[C@H]2[C@H]1CC/C(COC(=O)NCc1ccc(Cn3c(=O)sn(CCCC)c3=O)cc1)=C\CC[C@@]1(C)O[C@@H]21 showed a GI50 (SW-620 colon) of 1.51 µM, a TGI (SW-620 colon) of 3.09 µM and a GI50 (RPMI-8226 leukemia) of 1.48 µM. For the same compound, the TGI (RPMI-8226 leukemia) was 4.07 µM, the GI50 (CCRF-CEM leukemia) was 0.657 µM and the TGI (CCRF-CEM leukemia) was 4.56 µM. For the same compound, the GI50 (OVCAR-3 ovarian) was 1.59 µM, the TGI (OVCAR-3 ovarian) was 2.97 µM and the GI50 (COLO 205 colon) was 2 µM. For the same compound, the TGI (COLO 205 colon) was 3.88 µM, the GI50 (K-562 leukemia) was 0.891 µM and the TGI (K-562 leukemia) was greater than 100 µM. For the same compound, the GI50 (SR leukemia) was 0.407 µM, the TGI (SR leukemia) was 5.39 µM and the GI50 (NCI-H522 lung) was 1.19 µM. For the same compound, the TGI (NCI-H522 lung) was 2.88 µM, the GI50 (A498 renal) was 3.28 µM and the TGI (A498 renal) was 14.1 µM. It also gave a GI50 (HL-60(TB) leukemia) of 1.81 µM, a TGI (HL-60(TB) leukemia) of 5.42 µM and a GI50 (MDA-MB-231 breast) of 1.8 µM. The TGI (MDA-MB-231 breast) was 3.57 µM, the GI50 (SNB-19 CNS) was 6.63 µM and the TGI (SNB-19 CNS) was 19.6 µM. For the same compound, the GI50 (SK-MEL-28 melanoma) was 1.8 µM, the TGI (SK-MEL-28 melanoma) was 3.36 µM and the GI50 (KM12 colon) was 14.8 µM. It also gave a TGI (KM12 colon) of 29.4 µM, a GI50 (HS 578T breast) of 3.24 µM and a TGI (HS 578T breast) of 12.7 µM. The GI50 (SK-OV-3 ovarian) was 15.2 µM, the TGI (SK-OV-3 ovarian) was 28.7 µM and the GI50 (M14 melanoma) was 1.45 µM. It also gave a TGI (M14 melanoma) of 2.97 µM, a GI50 (HCC-2998 colon) of 4.1 µM and a TGI (HCC-2998 colon) of 13.4 µM. The GI50 (T-47D breast) was 2.04 µM, the TGI (T-47D breast) was 4.83 µM and the GI50 (LOX IMVI melanoma) was 1.65 µM. The TGI (LOX IMVI melanoma) was 3.08 µM, the GI50 (MCF7 breast) was 1.87 µM and the TGI (MCF7 breast) was 3.91 µM. It also gave a GI50 (OVCAR-8 ovarian) of 3.64 µM, a TGI (OVCAR-8 ovarian) of 15.2 µM and a GI50 (HCT-116 colon) of 1.36 µM. The TGI (HCT-116 colon) was 2.78 µM, the GI50 (NCI-H23 lung) was 4.19 µM and the TGI (NCI-H23 lung) was 15.3 µM. The GI50 (SF-268 CNS) was 4.28 µM, the TGI (SF-268 CNS) was 17.2 µM and the GI50 (CAKI-1 renal) was 1.64 µM. It also gave a TGI (CAKI-1 renal) of 3.24 µM, a GI50 (DU-145 prostate) of 1.81 µM and a TGI (DU-145 prostate) of 3.36 µM. For the same compound, the GI50 (UACC-257 melanoma) was 2.03 µM, the TGI (UACC-257 melanoma) was 4.93 µM and the GI50 (SK-MEL-5 melanoma) was 3.18 µM. The TGI (SK-MEL-5 melanoma) was 9.48 µM, the GI50 (NCI-H460 lung) was 5.92 µM and the TGI (NCI-H460 lung) was 19.6 µM. It also gave a GI50 (HOP-92 NSCLC) of 1.29 µM, a TGI (HOP-92 NSCLC) of 2.72 µM and a GI50 (MOLT-4 leukemia) of 1.55 µM. For the same compound, the TGI (MOLT-4 leukemia) was 5.73 µM, the GI50 (UO-31 renal) was 1.45 µM and the TGI (UO-31 renal) was 2.78 µM. The GI50 (OVCAR-4 ovarian) was 1.52 µM, the TGI (OVCAR-4 ovarian) was 3.05 µM and the GI50 (HCT-15 colon) was 2.02 µM. The TGI (HCT-15 colon) was 3.76 µM, the GI50 (SK-MEL-2 melanoma) was 4.52 µM and the TGI (SK-MEL-2 melanoma) was 17 µM. It also gave a GI50 (SN12C renal) of 1.73 µM, a TGI (SN12C renal) of 3.93 µM and a GI50 (TK-10 renal) of 1.81 µM. For the same compound, the TGI (TK-10 renal) was 3.59 µM, the GI50 (EKVX NSCLC) was 3.32 µM and the TGI (EKVX NSCLC) was 9.83 µM. The GI50 (IGROV1 ovarian) was 1.83 µM, the TGI (IGROV1 ovarian) was 3.93 µM and the GI50 (RXF 393 renal) was 1.57 µM. For the same compound, the TGI (RXF 393 renal) was 3.04 µM, the GI50 (U251 CNS) was 4.15 µM and the TGI (U251 CNS) was 15.5 µM. It also gave a GI50 (MDA-MB-435) of 1.65 µM, a TGI (MDA-MB-435) of 3.22 µM and a GI50 (OVCAR-5 ovarian) of 1.93 µM. It also gave a TGI (OVCAR-5 ovarian) of 4.06 µM, a GI50 (HT29 colon) of 2.08 µM and a TGI (HT29 colon) of 4.18 µM. It also gave a GI50 (HOP-62 NSCLC) of 12.7 µM, a TGI (HOP-62 NSCLC) of 26.6 µM and a GI50 (A549 NSCLC) of 13.4 µM. For the same compound, the TGI (A549 NSCLC) was 28.7 µM, the GI50 (PC-3 prostate) was 1.75 µM and the TGI (PC-3 prostate) was 3.56 µM. For the same compound, the GI50 (NCI-H226 lung) was 11.9 µM, the TGI (NCI-H226 lung) was 29.8 µM and the GI50 (SF-539 CNS) was 1.68 µM. For the same compound, the TGI (SF-539 CNS) was 3.24 µM, the GI50 (ACHN renal) was 1.67 µM and the TGI (ACHN renal) was 3.08 µM. For the same compound, the GI50 (UACC-62 melanoma) was 1.62 µM, the TGI (UACC-62 melanoma) was 3.22 µM and the GI50 (786-0 renal) was 2 µM. The TGI (786-0 renal) was 4.02 µM, the GI50 (NCI/ADR-RES ovarian) was 27.8 µM and the TGI (NCI/ADR-RES ovarian) was 97.9 µM. It also gave a GI50 (MALME-3M melanoma) of 1.6 µM, a TGI (MALME-3M melanoma) of 3.32 µM and a GI50 (SF-295 CNS) of 15.3 µM. The TGI (SF-295 CNS) was 29 µM, the GI50 (BT-549 breast) was 1.56 µM and the TGI (BT-549 breast) was 3.03 µM.
